Results as given in patent US10364226B2, “Pyridazinone compounds and uses thereof” (priority 2013, dated 2019).

What was measured:
[1] = system: Influenza strain A549 A/WSN/33 (H1N1); experiment: Influenza Antiviral Assay; type: cell-based, Influenza A virus; conditions: Influenza A virus, A549, 20 h, neuraminidase fluorescence readout, read-out: % Inhibition
EN PA = EN PA (Influenza A virus, UniProt P15659); experiment: EN PA FRET Inhibition Assay; type: biochemical; conditions: read-out: Potency

SMILES	EC50 [1] [µM]	IC50 (EN PA) [µM]
O=C(O)c1nn(-c2cccc(C(F)(F)F)c2)cc(O)c1=O [Compound 1, 5-hydroxy-4-oxo-1-(3-(trifluoromethyl)phenyl)-1,4-dihydropyridazine-3-carboxylic acid]	> 100	0.1 to 1
CCN(CC)S(=O)(=O)c1ccc(OC)c(-n2cc(O)c(=O)c(C(=O)O)n2)c1 [Compound 2, 1-(5-(N,N-diethylsulfamoyl)-2-methoxyphenyl)-5-hydroxy-4-oxo-1,4-dihydropyridazine-3-carboxylic acid]	> 100	0.1 to 1
O=C(O)c1nn(-c2ccc(F)cc2)cc(O)c1=O [Compound 4]	> 100	0.1 to 1
O=C(O)c1nn(-c2cccc(Oc3ccccc3)c2)cc(O)c1=O [Compound 6]	> 100	0.1 to 1
O=C(O)c1nn(-c2ccccc2C(F)(F)F)cc(O)c1=O [Compound 7]	> 100	0.1 to 1
O=C(O)c1nn(-c2ccccc2Oc2ccccc2)cc(O)c1=O [Compound 9]	> 100	0.1 to 1
O=C(O)c1nn(-c2ccc3c(c2)CCC3)cc(O)c1=O [Compound 10]	> 100	0.1 to 1
O=C(O)c1nn(-c2ccccc2N2CCCCC2)cc(O)c1=O [Compound 11]	> 100	0.1 to 1
CS(=O)(=O)Nc1cccc(-n2cc(O)c(=O)c(C(=O)O)n2)c1 [Compound 17]	> 100	0.1 to 1
O=C(O)c1nn(-c2ccccc2-c2ccccc2)cc(O)c1=O [Compound 18]	> 100	0.1 to 1
CN(Cc1ccccc1-n1cc(O)c(=O)c(C(=O)O)n1)C1CCCCC1 [Compound 19]	> 100	0.1 to 1
O=C(O)c1nn(-c2cc(C(F)(F)F)cc(C(F)(F)F)c2)cc(O)c1=O [Compound 20]	> 100	0.1 to 1
O=C(O)c1nn(-c2ccccc2OC(F)(F)F)cc(O)c1=O [Compound 21]	> 100	< 0.1
CNC(=O)c1nn(CCc2cccc3ccccc23)cc(OC(C)=O)c1=O [Compound 636]		≥ 1
CC(NC(=O)c1nn(CC2(c3cccc(C(F)(F)F)c3)CCCC2)cc(O)c1=O)c1ccccc1 (stereo not drawn) [Compound 637]	< 20	
CNC(=O)c1nn(Cc2ccccc2-c2ccc(C(C)(C)C)cc2)cc(O)c1=O [Compound 642]	> 100	
CNC(=O)c1nn(-c2ccccc2Sc2cccc(Cl)c2)cc(O)c1=O [Compound 643]	> 100	
CNC(=O)c1nn(CC(Cc2ccccc2)c2cccc(C(F)(F)F)c2)cc(O)c1=O (stereo not drawn) [Compound 647]	< 20	
CNC(=O)c1nn(-c2ccccc2-c2ccc3ccncc3c2)cc(O)c1=O [Compound 651]	20 to 100	
CNC(=O)c1nn(-c2ccccc2-c2cc(C)cc(OCC3CC3)c2)cc(O)c1=O [Compound 652]	> 100	
Cc1cc(OCC2CC2)cc(-c2ccccc2-n2cc(O)c(=O)c(C(=O)O)n2)c1 [Compound 653]	> 100	
CC(C)(C)c1ccc(-c2ccccc2Cn2cc(O)c(=O)c(C(=O)O)n2)cc1 [Compound 657]	> 100	
CNC(=O)c1nn(C(Cc2ccccc2)C(=O)NC)cc(O)c1=O (stereo not drawn) [Compound 667]	> 100	
CNC(=O)c1nn(C(Cc2ccccc2)C(=O)Nc2ccccc2)cc(O)c1=O (stereo not drawn) [Compound 668]	> 100	
Cc1[nH]c2ccc(CNC(=O)c3nn(CC4(c5cccc(C(F)(F)F)c5)CCCC4)cc(O)c3=O)cc2c1C [Compound 672]	< 20	
CNC(=O)c1nn(CC2(n3cc(-c4cncnc4)c4cccnc43)CCCC2)cc(O)c1=O [Compound 673]	> 100	

SMILES	EC50 [1] [µM]	IC50 (EN PA) [µM]
CNC(=O)c1nn(CC2(c3ccc(OC)cc3)CC2)cc(O)c1=O [Compound 675]	> 100	
CNC(=O)c1nn(CC2(c3cccc(OC(F)(F)F)c3)CCCC2)cc(O)c1=O [Compound 684]	< 20	
CNC(=O)c1nn(CC2(c3ccc(C(C)C)cc3)CC2)cc(O)c1=O [Compound 688]	< 20	
CNC(=O)c1nn(Cc2cc(C(F)(F)F)ccc2-c2ccccc2)cc(O)c1=O [Compound 689]	> 100	
CNC(=O)c1nn(Cc2cc(C(F)(F)F)ccc2-c2ccc(C(C)(C)C)cc2)cc(O)c1=O [Compound 690]	> 100	
O=C(NCc1ccccn1)c1nn(CC2(c3ccccc3)CCCC2)cc(O)c1=O [Compound 691]	< 20	
O=C(Nc1ccc(Oc2ccccc2)cc1)c1nn(CC2(c3ccccc3)CCCC2)cc(O)c1=O [Compound 696]	> 100	
COc1ccc(NC(=O)c2nn(CC3(c4ccccc4)CCCC3)cc(O)c2=O)cc1 [Compound 697]	> 100	
O=C(NCc1ccccc1)c1nn(CC2(c3ccccc3)CCCC2)cc(O)c1=O [Compound 698]	< 20	
O=C(NCc1cccnn1)c1nn(CC2(c3ccccc3)CCCC2)cc(O)c1=O [Compound 699]	< 20	
CNC(=O)c1nn(CC2(c3cccc(Oc4ccccc4)c3)CCCC2)cc(O)c1=O [Compound 701]		< 0.1
CNC(=O)c1nn(CC2(c3cccc(C(C)C)c3)CC2)cc(O)c1=O [Compound 702]	< 20	
COc1ccc(NC(=O)c2nn(CC3(c4ccccc4)CCCC3)cc(O)c2=O)cc1OC [Compound 705]	> 100	
CC(C)Oc1ccc(NC(=O)c2nn(CC3(c4ccccc4)CCCC3)cc(O)c2=O)cc1 [Compound 706]	> 100	
O=C(Nc1ccc(Cl)cc1Cl)c1nn(CC2(c3ccccc3)CCCC2)cc(O)c1=O [Compound 707]	< 20	
CNC(=O)c1nn(CC2(c3ccc(-c4ccnn4C)cc3)CC2)cc(O)c1=O [Compound 710]	> 100	
CNC(=O)c1nn(CC2(c3cccc(C4CCCCC4)c3)CCCC2)cc(O)c1=O [Compound 711]	< 20	
CNC(=O)c1nn(CC2(c3cccc(-c4cn[nH]c4)c3)CC2)cc(O)c1=O [Compound 712]	> 100	
CNC(=O)c1nn(CC2(c3cccc(-c4ccnn4C)c3)CC2)cc(O)c1=O [Compound 713]	> 100	
CNC(=O)c1nn(CC2(c3cccc(-c4cn[nH]c4)c3)CCCC2)cc(O)c1=O [Compound 714]	> 100	
O=C(Nc1ccc(Cl)c(C(F)(F)F)c1)c1nn(CC2(c3ccccc3)CCCC2)cc(O)c1=O [Compound 719]	> 100	
CS(=O)(=O)c1ccc(NC(=O)c2nn(CC3(c4ccccc4)CCCC3)cc(O)c2=O)cc1 [Compound 721]	> 100	
CNC(=O)c1nn(CC2(c3cccc(-c4ccsc4)c3)CC2)cc(O)c1=O [Compound 724]	> 100	
CNC(=O)c1nn(CC2(c3cccc(Oc4ccccc4)c3)CCCC2)cc(O)c1=O [Compound 725]	< 20	
CNC(=O)c1nn(CC2(c3cccc(-c4cnc5ccccc5c4)c3)CC2)cc(O)c1=O [Compound 726]	< 20	
CNC(=O)c1nn(CC2(c3cccc(-c4cncc(F)c4)c3)CC2)cc(O)c1=O [Compound 727]	> 100	

SMILES	EC50 [1] [µM]	IC50 (EN PA) [µM]
CNC(=O)c1nn(CC2(c3ccc(-c4cn[nH]c4)cc3)CC2)cc(O)c1=O [Compound 728]	> 100	
CNC(=O)c1nn(CC2(c3ccc(C4CCCCC4)cc3)CC2)cc(O)c1=O [Compound 729]	> 100	
CNC(=O)c1nn(CC2(c3cccc(-c4ccnn4C)c3)CCCC2)cc(O)c1=O [Compound 731]	> 100	
CNC(=O)c1nn(CC2(c3cccc(-c4ccncc4)c3)CCCC2)cc(O)c1=O [Compound 732]	> 100	
CNC(=O)c1nn(CC2(c3cccc(-c4ccc(OC)nc4)c3)CCCC2)cc(O)c1=O [Compound 734]	> 100	
CNC(=O)c1nn(CC2(c3cccc(-c4cnc5ccccc5c4)c3)CCCC2)cc(O)c1=O [Compound 735]	> 100	
CNC(=O)c1nn(CC2(c3cccc(-c4cncc(F)c4)c3)CCCC2)cc(O)c1=O [Compound 736]	> 100	
CNC(=O)c1nn(CC2(c3ccc(-c4ccc5c(c4)OCO5)cc3)CC2)cc(O)c1=O [Compound 737]	< 20	
CNC(=O)c1nn(CC2(c3cccc(-c4ccco4)c3)CC2)cc(O)c1=O [Compound 739]	> 100	
CNC(=O)c1nn(CC2(c3cccc(-c4ccoc4)c3)CC2)cc(O)c1=O [Compound 744]	> 100	
CNC(=O)c1nn(CC2(c3cccc(-c4ccco4)c3)CCCC2)cc(O)c1=O [Compound 745]	< 20	
O=C(NCc1ccc(F)c(Cl)c1)c1nn(CC2(c3ccc(-c4ccccc4)cc3)CCCC2)cc(O)c1=O [Compound 746]	> 100	
CNC(=O)c1nn(CC2(c3cccc(-c4cnn(C)c4)c3)CC2)cc(O)c1=O [Compound 748]	> 100	
O=C(NCc1ccc(F)c(Cl)c1)c1nn(CC2(c3cccc(Oc4ccccc4)c3)CCCC2)cc(O)c1=O [Compound 751]	> 100	
CNC(=O)c1nn(CC2(c3ccc(-c4cncc(F)c4)cc3)CCCC2)cc(O)c1=O [Compound 763]	< 20	
CNC(=O)c1nn(CC2(c3cccc(-c4ccn[nH]4)c3)CCCC2)cc(O)c1=O [Compound 767]	< 20	
CNC(=O)c1nn(CC2(c3cccc(-c4cnn(C)c4)c3)CCCC2)cc(O)c1=O [Compound 769]	> 100	
CNC(=O)c1nn(CC2(c3ccc(-c4ccc(OC)nc4)cc3)CCCC2)cc(O)c1=O [Compound 770]	< 20	
CNC(=O)c1nn(CC2(c3ccc(-c4ccnn4C)cc3)CCCC2)cc(O)c1=O [Compound 779]	> 100	
CNC(=O)c1nn(CC2(c3ccc(-c4cc[nH]n4)cc3)CCCC2)cc(O)c1=O [Compound 780]	< 20	
CNC(=O)c1nn(CC2(c3ccc(-c4ccncc4)cc3)CCCC2)cc(O)c1=O [Compound 781]	< 20	
O=C(NCc1ccc(F)c(Cl)c1)c1nn(CC2(c3cccnc3)CCCC2)cc(O)c1=O [Compound 802]		< 0.1
O=C(NCc1ccc(F)c(Cl)c1)c1nn(CC2(c3ccc(Cl)cc3)CCCC2)cc(O)c1=O [Compound 803]		< 0.1
O=C(NCc1ccccc1)c1nn(CC2(c3ccc(Cl)cc3)CCCC2)cc(O)c1=O [Compound 804]		< 0.1
O=C(NCc1ccc(F)c(Cl)c1)c1nn(CC2(c3ccc(F)c(F)c3)CCCC2)cc(O)c1=O [Compound 805]		< 0.1
